Data reported in US4362743A, “Antibacterial monic acid esters” (Beecham Group Limited, priority 1980, dated 1982).
Converted amounts (≈) assume the structure as drawn.

Legend:
Type in all cases: cell-based
[1] = test system: M. hyosynoviae ATCC 25591; experiment: Anti-mycoplasmal activity in vitro MIC; conditions: 144 h
[2] = test system: M. pneumoniae ATCC 15492; experiment: Anti-mycoplasmal activity in vitro MIC; conditions: Mycoplasmoides pneumoniae, ATCC15492, 144 h
[3] = test system: M. suipneumoniae NB12; experiment: Anti-mycoplasmal activity in vitro MIC; conditions: Mesomycoplasma hyopneumoniae, NB12, 144 h
[4] = test system: M. dispar NCTC 10125; experiment: Anti-mycoplasmal activity in vitro MIC; conditions: 144 h
[5] = test system: M. suipneumoniae MS16; experiment: Anti-mycoplasmal activity in vitro MIC; conditions: Mesomycoplasma hyopneumoniae, MS16, 144 h
[6] = test system: M. bovigenitalium ATCC 14173; experiment: Anti-mycoplasmal activity in vitro MIC; conditions: 144 h; M. bovigenitalium ATCC 14173; Friis broth, 0.9% agarose, 6 days 37° C.; read-out: M.I.C.
[7] = test system: M. hyorhinis ATCC 25021; experiment: Anti-mycoplasmal activity in vitro MIC; conditions: Mesomycoplasma hyorhinis, ATCC25021, 144 h
[8] = test system: M. gallisepticum S6; experiment: Anti-mycoplasmal activity in vitro MIC; conditions: Mycoplasmoides gallisepticum, 144 h; M. gallisepticum S6; Friis broth, 0.9% agarose, 6 days 37° C.; read-out: M.I.C.
[9] = test system: M. suipneumoniae Str. 11; experiment: Anti-mycoplasmal activity in vitro MIC; conditions: Mesomycoplasma hyopneumoniae, STR.11, 144 h
[10] = test system: M. suipneumoniae PW/C/210; experiment: Anti-mycoplasmal activity in vitro MIC; conditions: Mesomycoplasma hyopneumoniae, 144 h
[11] = test system: M. suipneumoniae JF 435; experiment: Anti-mycoplasmal activity in vitro MIC; conditions: Mesomycoplasma hyopneumoniae, JF435, 144 h; M. suipneumoniae JF 435; Friis broth, 0.9% agarose, 6 days 37° C.; read-out: M.I.C.
[12] = test system: M. suipneumoniae TAM 6N; experiment: Anti-mycoplasmal activity in vitro MIC; conditions: Mesomycoplasma hyopneumoniae, TAM6N, 144 h; M. suipneumoniae TAM 6N; Friis broth, 0.9% agarose, 6 days 37° C.; read-out: M.I.C.
[13] = test system: M. suipneumoniae HK (2); experiment: Anti-mycoplasmal activity in vitro MIC; conditions: Mesomycoplasma hyopneumoniae, 144 h; M. suipneumoniae HK (2); Friis broth, 0.9% agarose, 6 days 37° C.; read-out: M.I.C.
[14] = test system: M. suipneumoniae J2206/183b; experiment: Anti-mycoplasmal activity in vitro MIC; conditions: Mesomycoplasma hyopneumoniae, 144 h; M. suipneumoniae J2206/183b; Friis broth, 0.9% agarose, 6 days 37° C.; read-out: M.I.C.
[15] = test system: M. suipneumoniae LABER; experiment: Anti-mycoplasmal activity in vitro MIC; conditions: Mesomycoplasma hyopneumoniae, 144 h
[16] = test system: M. suipneumoniae NCTC 10110; experiment: Anti-mycoplasmal activity in vitro MIC; conditions: Mesomycoplasma hyopneumoniae, NCTC10110, 144 h; M. suipneumoniae NCTC 10110; Friis broth, 0.9% agarose, 6 days 37° C.; read-out: M.I.C.
[17] = test system: M. suipneumoniae ATCC 25095; experiment: Anti-mycoplasmal activity in vitro MIC; conditions: Mesomycoplasma hyopneumoniae, ATCC25095, 144 h
[18] = test system: M. bovis NCTC 10131; experiment: microbe, parasite or virus in culture; conditions: NCTC10131, 144 h
[19] = test system: M. suipneumoniae UCD 1; experiment: Anti-mycoplasmal activity in vitro MIC; conditions: Mesomycoplasma hyopneumoniae, UCD1, 144 h; M. suipneumoniae UCD 1; Friis broth, 0.9% agarose, 6 days 37° C.; read-out: M.I.C.
[20] = test system: M. hyorhinis ATCC 23234; experiment: Anti-mycoplasmal activity in vitro MIC; conditions: Mesomycoplasma hyorhinis, ATCC23234, 144 h

## C/C(=C\C(=O)OCc1cccc(C=NO)c1)C[C@@H]1OC[C@H](C[C@@H]2O[C@H]2[C@@H](C)[C@H](C)O)[C@@H](O)[C@H]1O [Example 8, m-Hydroxyiminomethylbenzyl monate A]
[1]
  MIC: 0.25 µg/mL (≈ 0.524 µM)
[2]
  MIC: 2.5 µg/mL (≈ 5.24 µM)
[3]
  MIC: 0.25 µg/mL (≈ 0.524 µM)
[4]
  MIC: 0.1 µg/mL (≈ 0.209 µM)
[5]
  MIC: 0.25 µg/mL (≈ 0.524 µM)
[6]
  MIC: 0.025 µg/mL (≈ 0.0524 µM)
[7]
  MIC: 0.25 µg/mL (≈ 0.524 µM)
[8]
  MIC: 5 µg/mL (≈ 10.5 µM)
[9]
  MIC: 0.25 µg/mL (≈ 0.524 µM)
[10]
  MIC: 0.25 µg/mL (≈ 0.524 µM)
[11]
  MIC: 0.5 µg/mL (≈ 1.05 µM)
[12]
  MIC: 0.5 µg/mL (≈ 1.05 µM)
[13]
  MIC: 0.5 µg/mL (≈ 1.05 µM)
[14]
  MIC: 0.5 µg/mL (≈ 1.05 µM)
[15]
  MIC: 0.25 µg/mL (≈ 0.524 µM)
[16]
  MIC: 0.5 µg/mL (≈ 1.05 µM)
[17]
  MIC: 0.25 µg/mL (≈ 0.524 µM)
[18]
  MIC: ≤ 0.01 µg/mL
[19]
  MIC: 0.5 µg/mL (≈ 1.05 µM)
[20]
  MIC: 0.25 µg/mL (≈ 0.524 µM)
